According to paper PMC2695949, “Synthesis and Evaluation of Novel Organogermanium Sesquioxides As Antitumor Agents” (Bioinorganic Chemistry and Applications, 2009):

Experiments:
[1] = tested on: Bel (human liver cancer) cells; assay: MTT antitumor activity in vitro, Bel cells; assay type: cell-based; conditions: 50 μg/mL, DMSO as solvent
Experimental: (§1) The antitumor activity in vitro was assayed by the MTT method using DMSO as solvent.

[2] = tested on: HCT (human colonic cancer) cells; assay: MTT antitumor activity in vitro, HCT cells; assay type: cell-based; conditions: 50 μg/mL, DMSO as solvent
Experimental: (§2) The antitumor activity in vitro was assayed by the MTT method using DMSO as solvent. The tumor inhibition yield and IC50 of the five organogermanium sesquioxides and Ge-132 against KB (human nasopharyngeal cancer), HCT (human colonic cancer), and Bel (human liver cancer) cells were measured.

[3] = Solubility of the powders; assay type: physicochemical; conditions: 2 mol/L of NaOH solution
[4] = tested on: KB (human nasopharyngeal cancer) cells; assay: MTT antitumor activity in vitro, KB cells; assay type: cell-based; conditions: 50 μg/mL, DMSO as solvent
Experimental: as §2

KB, HCT, and Bel cells = assay: MTT antitumor activity in vitro, cell line not singled out; assay type: cell-based, human; conditions: bioassay at 1, 10, and 50 μg/mL
Experimental: as §1

[5] = Biodistribution in nude mice bearing human colonic cancer xenografts; assay type: in vivo, Balb/c nude mice; conditions: for Biodistribution, uptake: Tumor; for Biodistribution, uptake / T/NT (ratio of ID %/g of tumor over normal tissue): n = 3; for T/NT (ratio of ID %/g of tumor over normal tissue): 20 h
Experimental: Experimental animals (Balb/c nude mice) were provided by Experimental Animal Department of Chinese Academy of Medical Sciences. The nude mice were implanted with human colonic carcinoma cells (LoVo cells). When the tumor size was about 1 cm, the mice were used for the experiment.
Twelve nude mice bearing human colonic cancer xenografts were injected in tail vein with 555~740 kBq of ^99mTc labeled compound 5. Three animals were sacrified at 1-hour, 3-hour, 6-hour, and 20-hour postinjection, respectively. Tissues and organs were excised, rinsed, weighted, and counted in a γ counter. The uptake percentage of the injected dose per gram of the measured organ (ID %/g) and the ratio of ID %/g of tumor over normal tissues (T/NT) were calculated.

NC(=S)NCC[CH2][Ge](=[O])[O][Ge](=[O])[CH2]CCNC(N)=S [Compound 5, γ-thiocarbamido propyl germanium sesquioxide]
Inhibition yield [1]: 70.9%
Inhibition yield [2]: 84.9%
solubility [3]: easily soluble
Inhibition yield [4]: 92.9%
antitumor activity against cancer cells (in words) (KB, HCT, and Bel cells): certain activities
Biodistribution, uptake ([5]; 1 h postinjection): 0.73 % ID/g
Biodistribution, uptake ([5]; 3 h postinjection): 0.97 % ID/g
Biodistribution, uptake ([5]; 6 h postinjection): 0.87 % ID/g
Biodistribution, uptake ([5]; 20 h postinjection): 0.62 % ID/g
clearance in tumor ([5]; nude mice, tail vein injection): relatively low
T/NT (ratio of ID %/g of tumor over normal tissue) ([5]; tumor versus Blood): 3.01
T/NT (ratio of ID %/g of tumor over normal tissue) ([5]; tumor versus Brain): 18.30
T/NT (ratio of ID %/g of tumor over normal tissue) ([5]; tumor versus Muscle): 5.81

NN1C(=O)C2C3C[CH]([Ge](=[O])[O][Ge](=[O])[CH]4CC5OC4C4C(=O)N(N)C(=O)C54)C(O3)C2C1=O (centres unmarked) [Compound 3]
Inhibition yield [1]: 0%
Inhibition yield [2]: 0%
solubility [3]: easily soluble
Inhibition yield [4]: 0%
antitumor activity against cancer cells (in words) (KB, HCT, and Bel cells): no antitumor activity

O=C1OC(=O)C2C3OC(C[CH]3[Ge](=[O])[O][Ge](=[O])[CH]3CC4OC3C3C(=O)OC(=O)C43)C12 (centres unmarked) [Compound 1]
Inhibition yield [1]: 0%
Inhibition yield [2]: 0%
Inhibition yield [4]: 0%
antitumor activity against cancer cells (in words) (KB, HCT, and Bel cells): no antitumor activity

O=C(O)C[CH2][Ge](=[O])[O][Ge](=[O])[CH2]CC(=O)O [Ge-132, carboxyethylgermanium sesquioxide, reference compound]
Inhibition yield [1]: 0%
Inhibition yield [2]: 31.4%
Inhibition yield [4]: 0%

O=C1NC(=O)C2C3OC(C[CH]3[Ge](=[O])[O][Ge](=[O])[CH]3CC4OC3C3C(=O)NC(=O)C43)C12 (centres unmarked) [Compound 2]
Inhibition yield [1]: 0%
Inhibition yield [2]: 0%
Inhibition yield [4]: 0%
antitumor activity against cancer cells (in words) (KB, HCT, and Bel cells): no antitumor activity

CCOC(=O)CCC(NC(=O)C[CH2][Ge](=[O])[O][Ge](=[O])[CH2]CC(=O)NC(CCC(=O)OCC)C(=O)OCC)C(=O)OCC (centres unmarked) [Compound 4, Germanium Sesquioxide of Ethyl Glutamate]
Inhibition yield [2]: 41.5%
Inhibition yield [4]: 0%
antitumor activity against cancer cells (in words) (KB, HCT, and Bel cells): certain activities
